Test results: patent publication US10112929B2, “Lactams as inhibitors of rock” (BRISTOL-MYERS SQUIBB COMPANY, priority 2015, dated 2018)
pIC50: −log10 of the molar value.

biological target: ROCK2 (Homo sapiens (Human), UniProt O75116); test: biochemical
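Note: rho kinase enzyme reaction halted with EDTA, phospho- and non-phospho peptide separated for read-out, kinase activity inhibition derived across a dose-response series, DMSO under 2%.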

Chain of ROCK2 (O75116 whole entry, species assumed): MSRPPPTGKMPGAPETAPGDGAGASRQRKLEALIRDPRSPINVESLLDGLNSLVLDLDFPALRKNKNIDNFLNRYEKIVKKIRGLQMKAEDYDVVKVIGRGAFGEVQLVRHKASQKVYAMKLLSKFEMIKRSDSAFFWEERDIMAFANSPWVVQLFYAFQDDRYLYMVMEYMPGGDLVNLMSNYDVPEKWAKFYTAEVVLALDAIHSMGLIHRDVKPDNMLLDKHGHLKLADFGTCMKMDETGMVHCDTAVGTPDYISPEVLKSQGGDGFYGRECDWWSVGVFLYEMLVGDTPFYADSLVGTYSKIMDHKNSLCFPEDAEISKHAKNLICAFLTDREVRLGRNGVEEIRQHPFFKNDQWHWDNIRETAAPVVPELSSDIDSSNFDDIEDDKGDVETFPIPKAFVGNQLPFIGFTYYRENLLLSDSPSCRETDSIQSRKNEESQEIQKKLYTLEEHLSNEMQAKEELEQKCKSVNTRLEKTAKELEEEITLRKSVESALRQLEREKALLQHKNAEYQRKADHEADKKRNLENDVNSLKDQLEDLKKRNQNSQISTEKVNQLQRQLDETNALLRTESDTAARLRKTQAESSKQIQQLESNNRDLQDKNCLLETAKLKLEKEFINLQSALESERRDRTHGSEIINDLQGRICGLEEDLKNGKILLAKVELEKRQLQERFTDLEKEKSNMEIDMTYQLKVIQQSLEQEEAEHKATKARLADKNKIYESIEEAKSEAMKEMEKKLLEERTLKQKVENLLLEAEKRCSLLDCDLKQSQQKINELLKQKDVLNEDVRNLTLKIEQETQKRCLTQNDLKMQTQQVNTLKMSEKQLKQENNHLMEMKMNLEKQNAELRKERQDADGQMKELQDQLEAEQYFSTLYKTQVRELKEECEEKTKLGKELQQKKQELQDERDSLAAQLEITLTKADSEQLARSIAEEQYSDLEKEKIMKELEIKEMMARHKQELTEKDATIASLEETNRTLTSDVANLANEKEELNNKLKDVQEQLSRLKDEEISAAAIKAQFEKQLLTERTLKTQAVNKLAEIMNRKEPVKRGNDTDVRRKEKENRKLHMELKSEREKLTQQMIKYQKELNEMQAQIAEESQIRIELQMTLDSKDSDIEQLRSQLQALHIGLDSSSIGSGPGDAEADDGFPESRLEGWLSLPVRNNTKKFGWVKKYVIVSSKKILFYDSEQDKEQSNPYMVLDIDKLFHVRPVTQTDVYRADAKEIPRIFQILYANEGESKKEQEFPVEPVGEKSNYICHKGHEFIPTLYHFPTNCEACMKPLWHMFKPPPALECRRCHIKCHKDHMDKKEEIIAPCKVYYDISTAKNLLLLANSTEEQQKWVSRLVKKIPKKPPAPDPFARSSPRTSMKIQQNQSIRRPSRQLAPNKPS

Row | Structure (SMILES) | pIC50
1 | COc1c(F)cccc1NC1CCN(c2ccc(-c3cn[nH]c3)cn2)C1=O (single isomer, unassigned) [Example 90, 1-(5-(1H-pyrazol-4-yl)pyridin-2-yl)-3-((3-fluoro-2-methoxyphenyl)amino)pyrrolidin-2-one] | 5.66 to 7.00
2 | COc1cccc(NC2CCN(c3ccc(-c4ccnc5[nH]ccc45)c(C)n3)C2=O)c1 (single isomer, unassigned) [Example 119, 3-((3-methoxyphenyl)amino)-1-(6-methyl-5-(1H-pyrrolo[2,3-b]pyridin-4-yl)pyridin-2-yl)pyrrolidin-2-one] | 5.66 to 7.00
3 | COc1cccc(NC2CCN(c3ccc(-c4ccncc4F)c(C)n3)C2=O)c1 (single isomer, unassigned) [Example 121, 1-(3′-fluoro-2-methyl-[3,4′-bipyridin]-6-yl)-3-((3-methoxyphenyl)amino)pyrrolidin-2-one] | 5.66 to 7.00
4 | COc1cccc(OC2CCN(c3ccc(-c4ccc5[nH]ncc5c4)c(OC)n3)C2=O)c1 (single isomer, unassigned) [Example 123, 1-(5-(1H-indazol-5-yl)-6-methoxypyridin-2-yl)-3-(3-methoxyphenoxy)pyrrolidin-2-one] | 5.66 to 7.00
5 | COc1cccc(OC2CCN(c3ccc(-c4ccc5cn[nH]c5c4)c(OC)n3)C2=O)c1 (single isomer, unassigned) [Example 124, 1-(5-(1H-indazol-6-yl)-6-methoxypyridin-2-yl)-3-(3-methoxyphenoxy)pyrrolidin-2-one] | 5.66 to 7.00

Second part, the molecule after the results:

Row | pIC50 | Structure (SMILES)
6 | 7.00 to 8.00 | COc1cc(NC2CCN(c3ccc(-c4cn[nH]c4)cn3)C2=O)ccc1F (single isomer, unassigned) [Example 83, 1-(5-(1H-pyrazol-4-yl)pyridin-2-yl)-3-((4-fluoro-3-methoxyphenyl)amino)pyrrolidin-2-one]
7 | > 8.00 | COc1cccc(NC2CCN(c3ccc(-c4cn[nH]c4)cn3)C2=O)c1 (single isomer, unassigned) [Example 85, 1-(5-(1H-pyrazol-4-yl)pyridin-2-yl)-3-((3-methoxyphenyl)amino)pyrrolidin-2-one]
8 | > 8.00 | COc1cc(F)cc(NC2CCN(c3ccc(-c4cn[nH]c4)cn3)C2=O)c1 (single isomer, unassigned) [Example 88, 1-(5-(1H-pyrazol-4-yl)pyridin-2-yl)-3-((3-fluoro-5-methoxyphenyl)amino)pyrrolidin-2-one]
9 | > 8.00 | COc1c(F)cccc1NC1CCN(c2ccc(-c3cn[nH]c3)cn2)C1=O (single isomer, unassigned) [Example 89, 1-(5-(1H-pyrazol-4-yl)pyridin-2-yl)-3-((3-fluoro-2-methoxyphenyl)amino) pyrrolidin-2-one]
10 | 7.00 to 8.00 | COc1cc(NC2CCN(c3ccc(-c4cn[nH]c4)c(OC(F)F)c3)C2=O)ccc1F (single isomer, unassigned) [Example 106, 1-[3-(difluoromethoxy)-4-(1H-pyrazol-4-yl)phenyl]-3-[(4-fluoro-3-methoxyphenyl)amino]pyrrolidin-2-one]
11 | 7.00 to 8.00 | COc1cccc(NC2CCN(c3ccc(-c4cn[nH]c4)c(OC(F)F)c3)C2=O)c1 (single isomer, unassigned) [Example 114, 1-(3-(difluoromethoxy)-4-(1H-pyrazol-4-yl)phenyl)-3-((3-methoxyphenyl)amino)pyrrolidin-2-one]
12 | 7.00 to 8.00 | COc1cccc(NC2CCN(c3ccc(-c4ccnc5[nH]ccc45)c(C)n3)C2=O)c1 (single isomer, unassigned) [Example 120, 3-((3-methoxyphenyl)amino)-1-(6-methyl-5-(1H-pyrrolo[2,3-b]pyridin-4-yl)pyridin-2-yl)pyrrolidin-2-one]
13 | 7.00 to 8.00 | COc1cccc(NC2CCN(c3ccc(-c4ccnc(N)n4)c(C)n3)C2=O)c1 (single isomer, unassigned) [Example 122, 1-(5-(2-aminopyrimidin-4-yl)-6-methylpyridin-2-yl)-3-((3-methoxyphenyl)amino) pyrrolidin-2-one]
